What is called IC50 is the concentration that gives 50% inhibition. By EC50 is commonly meant the midpoint of the concentration-response curve.

The values that follow come from US11459315B2, “Modulators of methyl modifying enzymes, compositions and uses thereof” (Constellation Pharmaceuticals, Inc., priority 2017, dated 2022).

Each structure is given as a SMILES string. Where two headings read alike, the source gives them in different places. Some results are limits rather than exact numbers.

The target in one test is PRC2 containing wt EZH2 (Homo sapiens (Human), UniProt Q15910). The test is described as follows: EZH2 biochemical assay (IC50), 3H-SAM incorporation into biotinylated H3 peptide. The settings on record: 30 pM PRC2 containing wt EZH2, 3-5 h pre-incubation. How it is done:
EZH2 biochemical assay (IC50): Compound potencies were assessed through incorporation of ^3H-SAM into a biotinylated H3 peptide. Specifically, 30 pM PRC2 containing wt EZH2 (pentameric complex prepared in-house) was pre-incubated with 450 nM SAM, 450 nM ^3H-SAM, 2 μM H3K27me3 activating peptide (H2N-[…](Kme3)[…]-amide) and compounds (as 10 point duplicate dose response titrations in DMSO, final assay 0.8% DMSO (v/v)) for 3-5 h in 50 mM Tris (pH 8.5), 1 mM DTT, 0.07 mM Brij-35, 0.1% BSA, and 0.8% DMSO in a total volume of 12.5 μl. Reaction was initiated with biotinylated H3 substrate peptide (H2N-[…](Kme1)[…]-NTPEGBiot) as a 2 μM stock in 12.5 μl of buffer and allowed to react at room temperature for 18-22 h. Quenching was accomplished by addition of 20 μl of STOP solution (50 mM Tris (pH 8.5), 200 mM EDTA, 2 mM SAH). 35 μl of the quenched solution was transferred to streptavidin coated FlashPlates (PerkinElmer), incubated 1-2 h, washed, and read in a TopCount Reader (PerkinElmer). IC50s were calculated in Genedata Screener using non-linear least square four parameter fits, where the four parameters were IC50, Hill slope, pre-transitional baseline (0% INH), and post-transitional baseline (100% INH).
IC50 values are reported as follows: “A” indicates an IC50 value of less than 0.5 nM; “B” indicates an IC50 value of 0.5 nM to 5 nM; “C” indicates an IC50 value of greater than 5 nM for each enzyme; and “ND” is not determined.

Test [1] concerns H3K27me3 mark in HeLa cells (EZH2). The test is described as follows: H3K27me3 Alpha Hela Assay (AlphaLISA). In kind it is cell-based. As to conditions: HeLa cells, 72 hrs, read-out: EZH2 Cell H3K27me3 Alpha HeLa (EC50 K27me3). How it is done: H3K27me3 Alpha Hela Assay (AlphaLISA). Ten different doses of each test compound (in a series of 3-fold dilutions) were plated in duplicate 384-well tissue culture treated plates (Catalog #6007680; Perkin Elmer, Waltham, Mass.). Hela cells grown in culture were trypsinized and counted using a Countess® cell counter (Catalog #C10281; Life Technologies, Grand Island, N.Y.). Cell were diluted to 67,000 cells per mL in 10% DMEM (Catalog #10569-010 Life Technologies, Grand Island, N.Y.) and 15 μL (1,000 cells) were plated into each well using the Biotek MicroFlo™ Select Dispenser (BioTek Instruments, Inc. Vermont, USA),) of the 384-well plate. Plates were incubated at 37° C./5% CO2 for 72 hrs. One of the duplicate plates was processed for HeLa assay and the other for viability.
5 μL of Cell-Histone Lysis buffer (1×) (Catalog #AL009F1 Perkin Elmer; Waltham, Mass.) per well was added to the plate processed for AlphaLISA and the plate was incubated at RT for 30 minutes on a plate shaker with low speed (Model #4625-Q Thermo Scientific; Waltham, Mass.). Then, 10 μL per well Histone Extraction buffer (catalog #AL009F2; Perkin Elmer; Waltham, Mass.) was added and the plate further incubated at RT for 20 min on plate shaker with low speed. Next, 10 μL of 5× mix of anti-K27me3 acceptor beads plus Biotinylated anti-Histone H3 (C-ter) Antibody (diluted to 3 nM final) (Catalog #AL118 Perkin Elmer; Waltham, Mass.) was added in each well. Dilution of the acceptor beads and anti-Histone H3 was done in 1× Histone Detection buffer (Catalog #AL009F3 Perkin Elmer; Waltham, Mass.) which was produced by diluting the 10× stock provided. The plate was sealed with an aluminum plate sealer and incubated at 23° C. for 60 min. Next, 10 μL 5× solution of Streptavidin Donor beads were added (Catalog #6760002 Perkin Elmer; Waltham, Mass.) (20 μg/mL final in 1× Histone Detection Buffer), =plate was sealed with Aluminum plate sealer and incubated at 23° C. for 30 min. The plates were then read using an EnVision-Alpha Reader (model #2104 Perkin Elmer; Waltham, Mass.).
Data from both assays was analyzed using Genedata (Basel, Switzerland). Data files were imported to Genedata and assay conditions were specified. A unique Analysis ID was created and the data files analysed to measure dose-dependent inhibition of H3K27me3 mark and cell viability respectively. Readout of DMSO wells were used to normalize the data. Resulting curves were fitted using Smart fit application (Genedata; Basel, Switzerland). The data was checked for quality, validated and integrated in excel format using Stardrop (Optibruim, Cambridge, UK).
EC50 values are reported as follows: “A” indicates an EC50 value of less than 10 nM; “B” indicates an EC50 value of 10 nM to 100 nM; “C” indicates an EC50 value of greater than 100 nM; and “ND” is not determined.
In general terms: Bead proximity is the source of the signal in Alpha formats.

Chain of PRC2 containing wt EZH2 (Q15910 whole entry): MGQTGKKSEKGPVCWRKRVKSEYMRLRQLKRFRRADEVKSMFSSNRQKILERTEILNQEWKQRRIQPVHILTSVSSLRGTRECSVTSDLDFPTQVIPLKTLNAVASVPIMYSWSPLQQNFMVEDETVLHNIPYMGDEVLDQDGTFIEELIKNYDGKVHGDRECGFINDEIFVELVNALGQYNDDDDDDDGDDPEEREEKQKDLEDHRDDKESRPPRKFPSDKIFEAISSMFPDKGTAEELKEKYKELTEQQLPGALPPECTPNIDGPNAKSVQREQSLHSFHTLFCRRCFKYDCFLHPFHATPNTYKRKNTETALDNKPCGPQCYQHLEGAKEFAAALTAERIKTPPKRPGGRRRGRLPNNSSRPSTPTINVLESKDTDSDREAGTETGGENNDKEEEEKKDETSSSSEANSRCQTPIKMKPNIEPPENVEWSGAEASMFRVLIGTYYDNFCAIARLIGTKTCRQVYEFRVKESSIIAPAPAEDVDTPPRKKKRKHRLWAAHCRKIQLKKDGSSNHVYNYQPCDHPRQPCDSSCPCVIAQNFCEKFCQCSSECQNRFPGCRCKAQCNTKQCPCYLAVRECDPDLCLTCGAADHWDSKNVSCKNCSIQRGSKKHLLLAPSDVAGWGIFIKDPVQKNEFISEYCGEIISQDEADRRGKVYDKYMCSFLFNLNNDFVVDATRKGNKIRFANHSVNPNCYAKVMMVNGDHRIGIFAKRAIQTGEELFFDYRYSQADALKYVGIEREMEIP
Chain of PRC2 containing wt EZH2 (O75530 whole entry partner): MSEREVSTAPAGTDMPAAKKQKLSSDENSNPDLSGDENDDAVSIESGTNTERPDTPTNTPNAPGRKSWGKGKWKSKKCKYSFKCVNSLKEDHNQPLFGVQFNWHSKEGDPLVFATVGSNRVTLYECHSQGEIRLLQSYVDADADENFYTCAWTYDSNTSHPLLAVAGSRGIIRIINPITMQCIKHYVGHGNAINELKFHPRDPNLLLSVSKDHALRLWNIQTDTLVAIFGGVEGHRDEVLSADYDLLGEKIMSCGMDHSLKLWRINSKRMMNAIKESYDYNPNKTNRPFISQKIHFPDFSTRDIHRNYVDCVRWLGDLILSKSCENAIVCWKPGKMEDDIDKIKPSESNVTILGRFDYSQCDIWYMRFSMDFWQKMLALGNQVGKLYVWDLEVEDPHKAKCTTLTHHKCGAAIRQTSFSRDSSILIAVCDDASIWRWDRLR
Chain of PRC2 containing wt EZH2 (Q15022 whole entry partner): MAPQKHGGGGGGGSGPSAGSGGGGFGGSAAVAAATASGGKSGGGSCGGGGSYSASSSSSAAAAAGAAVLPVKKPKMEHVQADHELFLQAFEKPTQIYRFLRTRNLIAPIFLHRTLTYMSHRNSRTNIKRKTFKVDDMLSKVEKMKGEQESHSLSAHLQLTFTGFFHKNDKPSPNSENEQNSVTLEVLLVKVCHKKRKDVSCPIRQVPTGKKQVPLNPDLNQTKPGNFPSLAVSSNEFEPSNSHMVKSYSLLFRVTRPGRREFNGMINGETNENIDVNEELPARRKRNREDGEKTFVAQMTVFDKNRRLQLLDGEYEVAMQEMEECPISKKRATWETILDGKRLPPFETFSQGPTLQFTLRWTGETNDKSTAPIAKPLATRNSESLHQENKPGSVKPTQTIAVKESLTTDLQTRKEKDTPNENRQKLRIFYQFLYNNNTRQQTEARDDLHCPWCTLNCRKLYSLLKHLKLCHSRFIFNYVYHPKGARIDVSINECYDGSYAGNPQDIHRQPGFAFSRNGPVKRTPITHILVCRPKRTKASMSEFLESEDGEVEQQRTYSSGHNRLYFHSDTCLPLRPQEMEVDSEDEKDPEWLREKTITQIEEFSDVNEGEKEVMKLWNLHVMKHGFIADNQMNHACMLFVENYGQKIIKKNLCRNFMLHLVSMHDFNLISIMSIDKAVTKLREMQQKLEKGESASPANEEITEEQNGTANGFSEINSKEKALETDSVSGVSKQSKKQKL
Chain of PRC2 containing wt EZH2 (Q09028 whole entry partner): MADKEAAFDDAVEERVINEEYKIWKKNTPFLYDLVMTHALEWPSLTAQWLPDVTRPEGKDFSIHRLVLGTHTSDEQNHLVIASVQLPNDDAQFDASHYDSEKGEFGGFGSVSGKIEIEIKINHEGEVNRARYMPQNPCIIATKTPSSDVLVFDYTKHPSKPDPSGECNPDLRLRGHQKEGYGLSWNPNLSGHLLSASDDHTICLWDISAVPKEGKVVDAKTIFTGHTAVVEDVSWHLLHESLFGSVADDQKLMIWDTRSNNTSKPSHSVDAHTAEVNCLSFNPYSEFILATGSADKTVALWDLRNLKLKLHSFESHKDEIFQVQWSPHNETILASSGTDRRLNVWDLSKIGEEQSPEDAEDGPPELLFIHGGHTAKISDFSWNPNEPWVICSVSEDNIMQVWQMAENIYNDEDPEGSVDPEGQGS
Chain of PRC2 containing wt EZH2 (Q6ZN18 whole entry partner): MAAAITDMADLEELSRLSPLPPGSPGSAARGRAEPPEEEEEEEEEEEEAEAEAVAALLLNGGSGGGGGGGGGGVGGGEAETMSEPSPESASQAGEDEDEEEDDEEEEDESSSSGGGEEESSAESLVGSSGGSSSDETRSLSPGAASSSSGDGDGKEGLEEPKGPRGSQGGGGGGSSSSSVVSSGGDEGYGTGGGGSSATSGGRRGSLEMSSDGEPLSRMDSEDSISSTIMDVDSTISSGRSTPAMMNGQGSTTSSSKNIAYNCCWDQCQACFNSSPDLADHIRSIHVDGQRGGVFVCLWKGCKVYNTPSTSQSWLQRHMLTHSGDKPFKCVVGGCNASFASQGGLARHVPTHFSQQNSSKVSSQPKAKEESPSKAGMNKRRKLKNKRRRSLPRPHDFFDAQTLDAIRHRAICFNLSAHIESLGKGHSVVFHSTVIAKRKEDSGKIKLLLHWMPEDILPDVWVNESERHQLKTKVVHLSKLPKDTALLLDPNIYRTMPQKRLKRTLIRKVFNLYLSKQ

On to `CSc1cc(C)[nH]c(=O)c1CNC(=O)c1c(C)n([C@H](C)C2CCC(NC3(CO)COC3)CC2)c2cc(F)ccc12` (single isomer, unassigned) [159 (isomer 2)], for which the IC50 at PRC2 containing wt EZH2 (read-out: EZH2 (IC50)) is under 0.5 nM. For the same compound, the EC50 in test [1] fell in the range of 10 to 100 nM.
Regarding `CSc1cc(C)[nH]c(=O)c1CNC(=O)c1c(C)n([C@H](C)[C@H]2CCN(C)[C@H](C(F)(F)F)C2)c2ccccc12` [Example 71, 2-methyl-1-((R)-1-((2S,4S)-1-methyl-2-(trifluoromethyl)piperidin-4-yl)ethyl)-N-((6-methyl-4-(methylthio)-2-oxo-1,2-dihydropyridin-3-yl)methyl)-1H-indole-3-carboxamide], the IC50 against PRC2 containing wt EZH2 (EZH2 (IC50)) is under 0.5 nM. Moreover, in test [1] (Homo sapiens, HeLa, 72 h), the EC50 was under 10 nM.
Consider `COC1CCC([C@@H](C)n2c(C)c(C(=O)NCc3c(SC)cc(C)[nH]c3=O)c3ccccc32)CC1` (single isomer, unassigned) [18 (isomer 1)], for which the IC50 at PRC2 containing wt EZH2 (EZH2 (IC50)) was under 0.5 nM. Moreover, in test [1] (Homo sapiens, HeLa, 72 h), the concentration for a half-maximal effect (EC50) is under 10 nM.
At PRC2 containing wt EZH2 (EZH2 (IC50)), `CSc1cc(C)[nH]c(=O)c1CNC(=O)c1c(C)n([C@H](C)C2CCC(N3CC(F)C3)CC2)c2ccccc12` (single isomer, unassigned) [24 (isomer 1)] showed an IC50 of under 0.5 nM. The EC50 in test [1] (Homo sapiens, HeLa, 72 h) is under 10 nM.
For `CSc1cc(C)[nH]c(=O)c1CNC(=O)c1c(C)n([C@H](C)C2CCC(N3CC(F)C3)CC2)c2c(F)cccc12` (stereo partly drawn) [Example 82, 7-fluoro-1-((R)-1-(4-(3-fluoroazetidin-1-yl)cyclohexyl)ethyl)-2-methyl-N-((6-methyl-4-(methylthio)-2-oxo-1,2-dihydropyridin-3-yl)methyl)-1H-indole-3-carboxamide], in that order: under 0.5 nM and under 10 nM.
Turning to `CSc1cc(C)[nH]c(=O)c1CNC(=O)c1c(C)n([C@H](C)C2CCC(N3CC(OC4CCC4)C3)CC2)c2ncc(Cl)cc12` (stereo partly drawn) [Example 126, 5-chloro-1-((R)-1-(4-(3-cyclobutoxyazetidin-1-yl)cyclohexyl)ethyl)-2-methyl-N-((6-methyl-4-(methylthio)-2-oxo-1,2-dihydropyridin-3-yl)methyl)-1H-pyrrolo[2,3-b]pyridine-3-carboxamide], on PRC2 containing wt EZH2 (read-out: EZH2 (IC50)), the 50% inhibitory concentration (IC50) is under 0.5 nM. Also, the EC50 in test [1] (Homo sapiens, HeLa, 72 h) was under 10 nM.
On to `CSc1cc(C)[nH]c(=O)c1CNC(=O)c1c(C)n([C@H](C)C2CCN(C3(C)CC3)CC2)c2ncccc12` [Example 131, (R)-2-methyl-N-((6-methyl-4-(methylthio)-2-oxo-1,2-dihydropyridin-3-yl)methyl)-1-(1-(1-(1-methylcyclopropyl)piperidin-4-yl)ethyl)-1H-pyrrolo[2,3-b]pyridine-3-carboxamide], for which, at PRC2 containing wt EZH2 (EZH2 (IC50)), the concentration for half-maximal inhibition (IC50) was under 0.5 nM. Further, the EC50 in test [1] (Homo sapiens, HeLa, 72 h) is under 10 nM.
For the compound `CSc1cc(C)[nH]c(=O)c1CNC(=O)c1c(C)n([C@H](C)C2OCC(NC(C)(C)C)CO2)c2ccccc12` (single isomer, unassigned) [5 (isomer 1)], at PRC2 containing wt EZH2 (read-out: EZH2 (IC50)), the IC50 lay within 0.5 to 5 nM. Moreover, in test [1] (Homo sapiens, HeLa, 72 h), the EC50 was in the range of 10 to 100 nM.
Regarding `CSc1cc(C)[nH]c(=O)c1CNC(=O)c1c(C)n([C@H](C)C2CCC(N3CC(F)C3)CC2)c2ncc(F)cc12` (single isomer, unassigned) [84 (isomer 1)], on PRC2 containing wt EZH2 (EZH2 (IC50)), the IC50 was under 0.5 nM. In addition, the EC50 in test [1] (Homo sapiens, HeLa, 72 h) was under 10 nM.
In the case of `CSc1cc(C)[nH]c(=O)c1CNC(=O)c1c(C)n([C@@H](C)c2cnc(C)nc2)c2ccccc12` [Example 34, (S)-2-methyl-N-((6-methyl-4-(methylthio)-2-oxo-1,2-dihydropyridin-3-yl)methyl)-1-(1-(2-methylpyrimidin-5-yl)ethyl)-1H-indole-3-carboxamide], on PRC2 containing wt EZH2 (read-out: EZH2 (IC50)), the IC50 was over 5 nM. Moreover, in test [1] (Homo sapiens, HeLa, 72 h), the EC50 was over 100 nM.
`COC1CC(N2CCC([C@@H](C)n3c(C)c(C(=O)NCc4c(SC)cc(C)[nH]c4=O)c4cccnc43)CC2)C1` (stereo partly drawn) [Example 141, (R)-1-(1-(1-(3-methoxycyclobutyl)piperidin-4-yl)ethyl)-2-methyl-N-((6-methyl-4-(methylthio)-2-oxo-1,2-dihydropyridin-3-yl)methyl)-1H-pyrrolo[2,3-b]pyridine-3-carboxamide]: the IC50 against PRC2 containing wt EZH2 (EZH2 (IC50)) is under 0.5 nM. Also, the EC50 in test [1] (Homo sapiens, HeLa, 72 h) is 10 to 100 nM.
Consider `CSc1cc(C)[nH]c(=O)c1CNC(=O)c1c(C)n([C@H](C)C2CCC(N3CC(C(F)(F)F)C3)CC2)c2ncccc12` (stereo partly drawn) [Example 110, 2-methyl-N-((6-methyl-4-(methylthio)-2-oxo-1,2-dihydropyridin-3-yl)methyl)-1-((R)-1-(4-(3-(trifluoromethyl)azetidin-1-yl)cyclohexyl)ethyl)-1H-pyrrolo[2,3-b]pyridine-3-carboxamide], for which the IC50 on PRC2 containing wt EZH2 (read-out: EZH2 (IC50)) is under 0.5 nM. Also, the EC50 in test [1] (Homo sapiens, HeLa, 72 h) was 10 to 100 nM.
Consider `CCOC[C@@H](C)n1c(C)c(C(=O)NCc2c(SC)cc(C)[nH]c2=O)c2ccccc21` [Example 33, (R)-1-(1-ethoxypropan-2-yl)-2-methyl-N-((6-methyl-4-(methylthio)-2-oxo-1,2-dihydropyridin-3-yl)methyl)-1H-indole-3-carboxamide], for which the half-maximal inhibitory concentration (IC50) at PRC2 containing wt EZH2 (EZH2 (IC50)) lay in the range of 0.5 to 5 nM. Moreover, in test [1] (Homo sapiens, HeLa, 72 h), the EC50 was in the range of 10 to 100 nM.
At PRC2 containing wt EZH2 (EZH2 (IC50)), `CSc1cc(C)[nH]c(=O)c1CNC(=O)c1c(C)n([C@H](C)C2CCC(N3CC(F)C3)CC2)c2cc(F)ccc12` (stereo partly drawn) [Example 83, (R)-6-fluoro-1-(1-(4-(3-fluoroazetidin-1-yl)cyclohexyl)ethyl)-2-methyl-N-((6-methyl-4-(methylthio)-2-oxo-1,2-dihydropyridin-3-yl)methyl)-1H-indole-3-carboxamide] gave an IC50 of under 0.5 nM. Further, in test [1] (Homo sapiens, HeLa, 72 h), the 50% effective concentration (EC50) was under 10 nM.
Regarding `COC1CC(N2CC[C@H]([C@@H](C)n3c(C)c(C(=O)NCc4c(SC)cc(C)[nH]c4=O)c4ccccc43)[C@H](F)C2)C1` (stereo partly drawn) [Example 153, 1-((R)-1-((3S,4R)-3-fluoro-1-(3-methoxycyclobutyl)piperidin-4-yl)ethyl)-2-methyl-N-((6-methyl-4-(methylthio)-2-oxo-1,2-dihydropyridin-3-yl)methyl)-1H-indole-3-carboxamide], the IC50 on PRC2 containing wt EZH2 (read-out: EZH2 (IC50)) was under 0.5 nM. Also, in test [1] (Homo sapiens, HeLa, 72 h), the EC50 was under 10 nM.
Consider `CCS(=O)(=O)N1CCC([C@@H](C)n2c(C)c(C(=O)NCc3c(SC)cc(C)[nH]c3=O)c3ccccc32)CC1` [Example 146, (R)-1-(1-(1-(ethylsulfonyl)piperidin-4-yl)ethyl)-2-methyl-N-((6-methyl-4-(methylthio)-2-oxo-1,2-dihydropyridin-3-yl)methyl)-1H-indole-3-carboxamide], for which the concentration for half-maximal inhibition (IC50) at PRC2 containing wt EZH2 (read-out: EZH2 (IC50)) is under 0.5 nM. The EC50 in test [1] (Homo sapiens, HeLa, 72 h) was under 10 nM.
As to `CSc1cc(C)[nH]c(=O)c1CNC(=O)c1c(C)n([C@H](C)C2CCC(NC3COC3)CC2)c2ncncc12` (stereo partly drawn) [Example 63, 6-methyl-N-((6-methyl-4-(methylthio)-2-oxo-1,2-dihydropyridin-3-yl)methyl)-7-((R)-1-(4-(oxetan-3-ylamino)cyclohexyl)ethyl)-7H-pyrrolo[2,3-d]pyrimidine-5-carboxamide], the IC50 on PRC2 containing wt EZH2 (read-out: EZH2 (IC50)) was under 0.5 nM. In test [1] (Homo sapiens, HeLa, 72 h), the EC50 is 10 to 100 nM.
